Bounds are passed on as bounds.

Consider `COc1c(C)c(Cc2ccc(Cl)cc2)c(OC)c2ccccc12`, for which the melting point is 101 to 102 °C. Consider `CCCn1nc(OCc2ccccc2)cc1/C=C/C(=O)OCC`, for which the melting point fell in the range of 58 to 59 °C. Next, `O=C(NC(=O)N1CCC(Cc2ccccc2)CC1)c1ccc(O)cc1`: 95 °C; `CCOc1ccc2c(c1)n(C1CCCCC1)c(=O)n2S(=O)(=O)c1ccc(C(=O)OCc2ccccc2)cc1OC`: 131 °C.

The compound `N#Cc1cc(O)c(O)c(O)c1` registered a melting point of 219 °C.

Regarding `O=C(Nc1ccc(C(F)(F)F)cc1)NC1CCOCC1`, the melting point was in the range of 196 to 198 °C. Turning to `O=c1[nH]cnc2cc(OCc3ccccc3)ccc12`, the melting point is 267 to 269 °C. To `CCOC(=O)C1=C(C(F)(F)F)Nc2n[nH]cc2C1c1ccccc1F` (stereo unspecified) belongs 119 to 120 °C; to `CCN(c1nc(C)cc(C(=O)c2nccs2)n1)c1ccc(C(C)C)cc1Br`, 97 to 98.5 °C; to `COC(=N)c1ccc(-c2ccccc2[N+](=O)[O-])o1`, 107 to 108 °C.

In turn, `CC[C@H]1COC(=O)N1c1nc(-c2ccc(C#N)cc2)c(F)s1` registered a melting point of 157 to 159 °C.

In the case of `O=C(O)CCc1cc(Cl)ccc1C(=O)O`, the melting point fell in the range of 156 to 158 °C. In turn, `CCOc1cc2ncc(C#N)c(Nc3ccc4c(c3)NCC4)c2cc1OCC` had a melting point of 121 to 124 °C.

Consider `CS(=O)(=O)Nc1ccc(OC2CCN(c3ccncc3)CC2)cc1`, for which the melting point was in the range of 191 to 192 °C. Next, `COC(=O)CC(C(=O)OC)N1CCC(Nc2ncc3ncnc(Nc4cccc(Br)c4)c3n2)CC1` (stereo unspecified): 193 °C; `CCCc1c(OCCCOc2ccc([C@H]3OC(=O)C[C@H]3C)cc2)ccc(C(C)=O)c1O`: 88.5 to 89.5 °C; `CC1(C)CC(=O)C1(Cl)CC(Cl)(Cl)Cl` (stereo unspecified): 75 to 76 °C. Next, `COc1ccc(CS(=O)CC(=O)NO)cc1OC` (stereo unspecified): 202 °C; `CCCCC1(N(C)C)CC=C(c2[nH]c3ccccc3c2CCNC(=O)CC(C)(C)C)CC1` (stereo unspecified): 139 to 142 °C. Next, `CCCC(=O)c1cnc2c(OCCCN3CCCCC3)cccc2c1Nc1ccccc1C`: 76 to 78 °C; `C/C(=C/c1ccc(C(=O)O)cc1)c1cc2c(cc1C)CCC(C)(C)CC2`: 223 to 225 °C; `COc1cc(Oc2nn(C)c(C(F)(F)F)c2Cl)ccc1[N+](=O)[O-]`: 71 to 73.5 °C. `COC(=O)C(C)(C)Cc1c(SC(C)(C)C)c2ccc(OC)cc2n1C`: the melting point was 97 to 98 °C. `Brc1ccc(-c2nnnn2Cc2ccccc2)s1` registered a melting point of 196 to 197 °C. The compound `CCOC(=O)c1c(C=O)c2c(Cl)cc(Cl)cc2n1C(=O)OC(C)(C)C` returned a melting point of 141 °C. `CCCCOP(=O)(Cc1cc(C(C)(C)C)c(O)c(C(C)(C)C)c1)Cc1cc(C(C)(C)C)c(O)c(C(C)(C)C)c1` displayed a melting point of 133 to 135 °C. Next, `CCOC(=O)COc1cccc2c1CCc1sc(O)nc1-2`: 74 to 75 °C. The compound `CC(C)Oc1ccc([N+](=O)[O-])cc1C(F)(F)F` returned a melting point of 34 to 36 °C.

Regarding `Cc1cccc(CCOc2ccc(C=C3SC(=O)NC3=O)cc2)n1`, the melting point lay within 180 to 182 °C.

The compound `COc1ncccc1NC(=NC#N)NC(NC(=O)c1cc(Cl)cc(Cl)c1)C(C)(Cl)Cl` (stereo unspecified) had a melting point of 149 to 150 °C. As for `Cc1ccc(S(=O)(=O)OCC2CCc3scnc3C2)cc1` (stereo unspecified), the melting point lay within 87 to 88 °C.

Consider `Cc1ccnc(NC(c2ccc(C(F)(F)F)cc2)c2ccc3cccnc3c2O)n1` (stereo unspecified), for which the melting point is 144 to 147 °C. To `COc1cccc(C#Cc2nc(C)ccc2N)c1` belongs 165 to 166 °C. To `O=C(NC(CCc1ccccc1)c1nnco1)c1ccc2[nH]c(-c3ccncc3)nc2c1` (stereo unspecified) belongs 103 °C; to `CCOc1ccc(-c2ccc(Br)cc2)cc1`, 139 °C. To `CN(C)c1c(F)c(F)c(F)c2c1c(=O)c(C(=O)O)cn2C1CC1` belongs 160 to 163 °C; to `O=S(=O)(O)c1cccc2c1ccc1nc(O)c(O)nc12`, above 300 °C. `N#CCOC(=O)c1cc2ccccc2o1` showed a melting point of 74 to 76 °C. Compound `CCCCc1nc2ccnc(Cl)c2n1Cc1ccc(-c2ccccc2C#N)cc1` yielded a melting point of 134 °C. To `Cn1c(=O)c(-c2ccccc2Cl)cc2cnc(N[C@H]3CC[C@H](N)CC3)nc21` belongs 190 to 191 °C; to `CCOc1ccc(C2C(=O)Oc3ccc(C)cc32)cc1` (stereo unspecified), 82 to 86 °C. `Cc1cc(F)cc(-c2ccc3c(c2)C2(CCCCC2)C(=O)N3)c1` returned a melting point of 180 to 182 °C. To `CCCN(CCC)C1Cn2cnc3cccc(c32)C1C` (stereo unspecified) belongs 78 to 84 °C; to `CS(=O)(=O)Nc1cc2c(cc1Oc1ccc(F)cc1F)CCC2`, 85 to 87 °C; to `Cn1c(=O)c2c(Cl)cccc2n2cnc(C(=O)OCC3CC3)c12`, 214 °C. Compound `NC(=O)c1cccc2c1[nH]c1c3cc(Br)ccc3oc21` yielded a melting point of 300 to 301 °C. To `CCOC(=O)c1nn(-c2cccc(Br)c2)c(=O)c2c(N)scc12` belongs 163 to 165 °C; to `c1ccc(Oc2ccc(NC3=NN(c4ccccc4)CC3)cc2)cc1`, 114 to 116 °C; to `O=C(CCCCC1CCSS1)N1CCc2ccccc21` (stereo unspecified), 65 to 66 °C. Compound `O=C(c1ccc([N+](=O)[O-])cc1)N1Cc2ccnn2Cc2ccccc21` returned a melting point of 227 to 229 °C. As for `Cc1ccc2c(=O)[nH]c(C3CCN(C)CC3)cc2c1`, the melting point was 236 to 238 °C. To `CN(C)c1ncnc2c1ncn2Cc1c(F)cccc1Cl` belongs 134 to 135 °C. To `CC(=O)c1oc2ccccc2c1NC(=O)/C(C#N)=C(/C)O` belongs 206 to 208 °C; to `CC(C)CN1C(=O)C2CC(c3ccc(N)cc3)(C2)C1=O`, 158 to 160 °C; to `CCCCCCCc1ccc(C(=O)c2ccc(C(=O)O)cc2)cc1`, 181 °C. For `COc1cc2c(cc1O)CCN(Cc1cccnc1)C2`, the melting point lay within 165 to 166 °C. To `COCCNC(=O)c1cc2cc(OCCNC[C@H](O)COc3ccccc3)ccc2o1` belongs 95 to 96 °C. To `Cc1oc(-c2ccccc2)nc1CCCc1ccc(CC(C(=O)O)c2cccnc2)cc1` (stereo unspecified) belongs 112 to 114 °C; to `Oc1nnc(Cl)cc1N1CCNCC1`, 35 °C; to `Cc1ccc(-c2cn(C)cc(-c3ccc(C)cc3)c2=O)cc1`, 212 to 214 °C. Next, `Fc1ccc2[nH]ccc2c1Cl`: 41 to 43 °C; `CSc1nc(Cl)nc2sc(C)cc12`: 111 to 112 °C; `O=[N+]([O-])c1cc(N=c2sc(=S)n3n2CCCC3)c(F)cc1Cl`: 171 to 173 °C. `COc1ccc2nc(-c3nc(N)nc(N)n3)sc2c1` showed a melting point above 250 °C. To `CN(C)CCOc1cc2c(Nc3ccc(Oc4ccccc4)cc3)c(C#N)cnc2cn1` belongs 159 to 161 °C; to `CNC(=O)N1CC(Oc2ccc(C(F)(F)F)cc2Cl)C1`, 160 to 161 °C.

With `CC(C)CCc1c(-c2ccc(S(N)(=O)=O)cc2)cnn(-c2ccc(F)c(F)c2)c1=O`, the melting point lay within 171 to 173 °C. The compound `O=C(CCC#Cc1ccccn1)Nc1ccccc1F` registered a melting point of 82 to 84 °C. Compound `O=C(CNC(=O)c1cccc(-c2cccc3oc(Cc4cccc(C(F)(F)F)c4)cc23)c1)NCCO` yielded a melting point of 89 to 94 °C. Next, `NC(=O)c1ncn2c1[C@@H]1CCN1C(=O)c1c(Br)cccc1-2`: 314 to 317 °C; `CC1(C)C(=O)NC(=O)c2c1ccc(N)c2[N+](=O)[O-]`: 259 to 263 °C. Next, `CCOC(=O)COc1ccccc1C(=O)Nc1ccc(Sc2ccccc2-c2nnn[nH]2)cc1`: 97 to 99 °C; `Cc1cnc(CO)cc1C(c1cc(F)ccc1F)S(=O)(=O)c1ccc(Cl)cc1` (stereo unspecified): 196 to 198 °C.

The compound `CC(=O)C(Cc1ccccc1)Nc1nc2ccc(C(C)C)cc2s1` (stereo unspecified) registered a melting point of 107 to 110 °C. As for `Cc1cc(-n2cc(-c3ccc(S(C)(=O)=O)cc3)nc2C)cc2ccc(=O)[nH]c12`, the melting point was 345 to 347 °C.

Regarding `O=C(O)CCC(CNCC(CO)(NC(=O)OC1C2CC3CC(C2)CC1C3)C(=O)c1c[nH]c2ccccc12)c1ccccc1` (stereo unspecified), the melting point lay within 117 to 122 °C. `Brc1ncnn1C(c1ccccc1)(c1ccccc1)c1ccccc1` yielded a melting point of 239 to 241 °C. To `COc1cc(OC2CCN(c3c(O)c(=O)c3=O)CC2)ccc1CC(=O)N1CCN(c2ccccc2C)CC1C(N)=O` (stereo unspecified) belongs 144 to 148 °C; to `CNC(=O)c1ccc(C=CC(=O)Nc2cccc(-c3ccc(C)c(CO)c3C)c2)cc1`, 272 to 277 °C. Next, `Cc1ccc(-c2noc3c(Cl)c(OCC(=O)O)ccc23)cc1`: 257 to 260 °C. Turning to `CCOC(=O)C(C)c1ccc2cc(O)ccc2c1` (stereo unspecified), the melting point was 93 to 98 °C. `Cc1ccc(-c2ccccc2C(=O)Nc2ccc(C(=O)N3CCc4sc(NC(=N)N)nc4-c4ccccc43)cc2)cc1` registered a melting point above 230 °C. As to `Nc1ccc(Cl)cc1C(=O)c1ccc(O)cc1`, the melting point was 170 to 175 °C.

As for `CCN1C(=O)NC(=O)C1O` (stereo unspecified), the melting point lay in the range of 119 to 120 °C. To `c1ccc(-c2[nH]c3ccccc3c2C2CCNCC2)cc1` belongs 187 to 188 °C; to `COC(=O)CCSC(C)(C)C(NS(=O)(=O)c1ccc(Oc2ccc(F)cc2)cc1)C(=O)O` (stereo unspecified), 123 to 124 °C. To `Cc1ccc(Nc2nc(Cl)nc(NC3CCCCCC3)n2)cc1F` belongs 149 °C; to `CCC1CC2C3CCC4=CC(=O)CCC4=C3C=CC2(CC)C1O` (stereo unspecified), 184 to 187 °C. Next, `CSC(=NC(=O)CS(C)(=O)=O)N(C)N=Cc1ccccc1`: 150 °C; `CCOC(=O)c1cnn(-c2ccc(Br)cc2)c1C#N`: 104 to 105 °C. `CNC(=O)Cn1c(-c2cccc(Br)c2)nc2cccnc21` registered a melting point of 199 to 201 °C.

Usually melting point stands for the temperature of the solid-liquid transition.

The record behind these values is a melting point compilation (Tetko et al.; mined from patent text by program, amines drawn as free bases though some values may be those of a salt).
